Source: ChEMBL document CHEMBL5352421, “Identification of novel piperazine-tethered phthalazines as selective CDK1 inhibitors endowed with in vitro anticancer activity toward the pancreatic cancer” (Eur J Med Chem, 2022)
pIC50: −log10 of the molar value.

Experiments:
[1] = target: Protein-tyrosine kinase 2-beta (Homo sapiens, UniProt Q14289); experiment: Inhibition of PTK2B (unknown origin) by FRET assay
SK-MEL-1 = experiment: Antiproliferative activity against human SK-MEL-1 cells assessed as growth inhibition incubated at 10 uM for 24 hrs by MTT assay relative to control; assay type: functional; conditions: read-out: GI
[2] = target: Fibroblast growth factor receptor (Homo sapiens, UniProt P22607+P11362+P22455+P21802); experiment: Inhibition of FGFR (unknown origin) by FRET assay; assay type: protein assay
KG-1 = experiment: Antiproliferative activity against human KG-1 cells assessed as growth inhibition incubated at 10 uM for 24 hrs by MTT assay relative to control; assay type: functional; conditions: read-out: GI
[3] = target: Cyclin-dependent kinase 2 (Homo sapiens, UniProt P24941); experiment: Inhibition of CDK2 (unknown origin) by FRET assay
A-375 = experiment: Antiproliferative activity against human A-375 cells assessed as growth inhibition incubated at 10 uM for 24 hrs by MTT assay relative to control; assay type: functional; conditions: read-out: GI
[4] = Antiproliferative activity against human PL45 cells assessed as growth inhibition incubated at 10 uM for 24 hrs by MTT assay relative to control; assay type: functional; conditions: read-out: GI
[5] = Selectivity index, ratio of IC50 for CDK5 (unknown origin) to CDK1 (unknown origin)
MOLT-4 = experiment: Antiproliferative activity against human MOLT-4 cells assessed as growth inhibition incubated at 10 uM for 24 hrs by MTT assay relative to control; assay type: functional; conditions: read-out: GI
G-361 = experiment: Antiproliferative activity against human G-361 cells assessed as growth inhibition incubated at 10 uM for 24 hrs by MTT assay relative to control; assay type: functional; conditions: read-out: GI
[6] = target: Cyclin-dependent kinase 1 (Homo sapiens, UniProt P06493); experiment: Inhibition of CDK1 (unknown origin) by FRET assay
T84 = experiment: Antiproliferative activity against human T84 cells assessed as growth inhibition incubated at 10 uM for 24 hrs by MTT assay relative to control; assay type: functional; conditions: read-out: GI
[7] = Antiproliferative activity against human MDA-PATC53 cells assessed as growth inhibition incubated for 24 hrs by MTT assay; assay type: functional, cell-based; conditions: MDA-PATC53, 24 h
HT-29 = experiment: Antiproliferative activity against human HT-29 cells assessed as growth inhibition incubated at 10 uM for 24 hrs by MTT assay relative to control; assay type: functional; conditions: read-out: GI
[8] = target: T1, Tyrosine-protein kinase receptor UFO (Homo sapiens, UniProt P30530); experiment: Inhibition of AXL (unknown origin) by FRET assay
T1 sequence (P30530 whole entry): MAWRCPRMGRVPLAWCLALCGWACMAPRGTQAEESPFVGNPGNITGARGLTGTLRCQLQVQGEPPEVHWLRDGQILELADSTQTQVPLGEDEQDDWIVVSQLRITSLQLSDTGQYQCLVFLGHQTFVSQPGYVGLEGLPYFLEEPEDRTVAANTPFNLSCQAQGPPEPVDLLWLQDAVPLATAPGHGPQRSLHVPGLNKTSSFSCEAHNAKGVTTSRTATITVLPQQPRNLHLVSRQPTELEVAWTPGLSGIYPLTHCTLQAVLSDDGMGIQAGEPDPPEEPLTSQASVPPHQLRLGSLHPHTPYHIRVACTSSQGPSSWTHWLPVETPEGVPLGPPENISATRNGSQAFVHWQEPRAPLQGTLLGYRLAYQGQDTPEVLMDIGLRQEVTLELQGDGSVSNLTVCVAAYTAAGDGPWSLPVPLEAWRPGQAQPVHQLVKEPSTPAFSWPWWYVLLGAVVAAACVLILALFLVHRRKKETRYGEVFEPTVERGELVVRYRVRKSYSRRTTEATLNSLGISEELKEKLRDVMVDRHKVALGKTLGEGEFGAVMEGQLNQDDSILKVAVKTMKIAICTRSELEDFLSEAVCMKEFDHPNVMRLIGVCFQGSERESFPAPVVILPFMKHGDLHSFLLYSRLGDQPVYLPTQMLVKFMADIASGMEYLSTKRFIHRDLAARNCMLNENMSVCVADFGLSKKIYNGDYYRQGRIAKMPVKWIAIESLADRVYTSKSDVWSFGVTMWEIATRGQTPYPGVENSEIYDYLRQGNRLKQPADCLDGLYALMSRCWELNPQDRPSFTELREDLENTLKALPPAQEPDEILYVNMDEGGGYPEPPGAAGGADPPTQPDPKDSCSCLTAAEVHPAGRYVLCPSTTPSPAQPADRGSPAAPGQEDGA

[9] = Antiproliferative activity against human MDA-PATC53 cells assessed as growth inhibition incubated at 10 uM for 24 hrs by MTT assay relative to control; assay type: functional; conditions: read-out: GI
[10] = target: Serine/threonine-protein kinase B-raf (Homo sapiens, UniProt P15056); experiment: Inhibition of BRAF (unknown origin) by FRET assay
[11] = target: Insulin-like growth factor 1 receptor (Homo sapiens, UniProt P08069); experiment: Inhibition of IGF1R (unknown origin) by FRET assay
[12] = target: Cyclin-dependent kinase 5 (Homo sapiens, UniProt Q00535); experiment: Inhibition of CDK5 (unknown origin) by FRET assay
[13] = Selectivity index, ratio of IC50 for CDK2 (unknown origin) to CDK1 (unknown origin)
MCF7 = experiment: Antiproliferative activity against human MCF7 cells assessed as growth inhibition incubated at 10 uM for 24 hrs by MTT assay relative to control; assay type: functional; conditions: read-out: GI
[14] = Antiproliferative activity against human PL45 cells assessed as growth inhibition incubated for 24 hrs by MTT assay; assay type: functional, cell-based; conditions: PL45, 24 h
[15] = target: Tyrosine-protein kinase JAK1 (Homo sapiens, UniProt P23458); experiment: Inhibition of JAK1 (unknown origin) by FRET assay
BT-549 = experiment: Antiproliferative activity against human BT-549 cells assessed as growth inhibition incubated at 10 uM for 24 hrs by MTT assay relative to control; assay type: functional; conditions: read-out: GI

Sequence of Cyclin-dependent kinase 5 (Q00535 whole entry): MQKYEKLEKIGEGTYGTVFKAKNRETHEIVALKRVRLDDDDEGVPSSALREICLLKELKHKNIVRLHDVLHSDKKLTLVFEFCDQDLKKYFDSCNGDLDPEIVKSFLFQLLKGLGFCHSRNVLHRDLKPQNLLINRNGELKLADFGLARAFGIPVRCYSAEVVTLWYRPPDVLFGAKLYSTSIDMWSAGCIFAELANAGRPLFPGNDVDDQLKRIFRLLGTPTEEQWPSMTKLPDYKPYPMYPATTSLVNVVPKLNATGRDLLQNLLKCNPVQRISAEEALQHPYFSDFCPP
Sequence of Tyrosine-protein kinase JAK1 (P23458 whole entry): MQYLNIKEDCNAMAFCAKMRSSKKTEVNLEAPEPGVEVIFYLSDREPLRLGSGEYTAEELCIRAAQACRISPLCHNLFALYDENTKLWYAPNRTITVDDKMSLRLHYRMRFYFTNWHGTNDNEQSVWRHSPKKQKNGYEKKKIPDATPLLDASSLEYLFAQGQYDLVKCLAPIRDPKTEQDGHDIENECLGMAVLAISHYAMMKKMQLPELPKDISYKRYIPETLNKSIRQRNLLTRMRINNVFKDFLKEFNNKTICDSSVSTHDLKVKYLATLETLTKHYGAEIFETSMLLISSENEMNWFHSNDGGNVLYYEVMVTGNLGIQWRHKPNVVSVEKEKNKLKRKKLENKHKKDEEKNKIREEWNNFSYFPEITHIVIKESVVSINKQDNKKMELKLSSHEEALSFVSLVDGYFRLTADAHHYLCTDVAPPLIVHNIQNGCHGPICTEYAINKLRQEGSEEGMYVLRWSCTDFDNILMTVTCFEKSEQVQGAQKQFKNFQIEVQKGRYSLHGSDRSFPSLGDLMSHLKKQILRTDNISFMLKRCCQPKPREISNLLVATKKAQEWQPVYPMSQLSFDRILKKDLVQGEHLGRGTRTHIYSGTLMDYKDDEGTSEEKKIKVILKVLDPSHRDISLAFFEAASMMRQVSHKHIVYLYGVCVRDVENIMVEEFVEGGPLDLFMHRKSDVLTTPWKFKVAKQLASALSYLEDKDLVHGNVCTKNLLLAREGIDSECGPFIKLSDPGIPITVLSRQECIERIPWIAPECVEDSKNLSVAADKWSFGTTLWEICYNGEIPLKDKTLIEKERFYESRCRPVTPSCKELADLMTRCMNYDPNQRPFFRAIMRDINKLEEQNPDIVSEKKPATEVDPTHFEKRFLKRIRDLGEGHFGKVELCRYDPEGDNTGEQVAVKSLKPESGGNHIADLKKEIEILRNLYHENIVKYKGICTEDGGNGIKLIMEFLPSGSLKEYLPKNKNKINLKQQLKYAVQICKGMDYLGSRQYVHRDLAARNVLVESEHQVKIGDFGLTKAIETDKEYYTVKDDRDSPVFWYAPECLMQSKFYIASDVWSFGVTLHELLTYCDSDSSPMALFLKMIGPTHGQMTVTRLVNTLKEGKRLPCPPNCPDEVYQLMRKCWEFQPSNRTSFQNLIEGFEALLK
Sequence of Insulin-like growth factor 1 receptor (P08069 31-736 limits assumed): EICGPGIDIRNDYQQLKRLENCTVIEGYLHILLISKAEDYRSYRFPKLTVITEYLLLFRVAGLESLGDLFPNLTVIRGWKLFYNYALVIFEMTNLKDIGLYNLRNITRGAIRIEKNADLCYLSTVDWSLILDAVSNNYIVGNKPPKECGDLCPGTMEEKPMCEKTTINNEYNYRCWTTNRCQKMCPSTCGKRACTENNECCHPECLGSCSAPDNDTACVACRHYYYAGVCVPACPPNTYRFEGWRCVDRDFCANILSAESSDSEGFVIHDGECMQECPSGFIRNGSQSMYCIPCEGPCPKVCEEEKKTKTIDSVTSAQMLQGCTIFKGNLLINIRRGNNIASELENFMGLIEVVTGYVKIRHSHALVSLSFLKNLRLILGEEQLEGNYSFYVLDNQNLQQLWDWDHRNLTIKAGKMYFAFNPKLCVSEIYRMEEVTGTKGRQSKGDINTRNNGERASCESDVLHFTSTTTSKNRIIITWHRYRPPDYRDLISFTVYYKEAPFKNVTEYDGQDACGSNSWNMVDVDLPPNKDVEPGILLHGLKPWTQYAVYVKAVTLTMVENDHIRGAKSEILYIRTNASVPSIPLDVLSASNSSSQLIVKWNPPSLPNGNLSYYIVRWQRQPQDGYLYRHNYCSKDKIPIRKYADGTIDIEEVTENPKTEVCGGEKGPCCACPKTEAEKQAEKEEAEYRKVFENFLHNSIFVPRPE
Sequence of Insulin-like growth factor 1 receptor (P08069 741-1367 limits assumed): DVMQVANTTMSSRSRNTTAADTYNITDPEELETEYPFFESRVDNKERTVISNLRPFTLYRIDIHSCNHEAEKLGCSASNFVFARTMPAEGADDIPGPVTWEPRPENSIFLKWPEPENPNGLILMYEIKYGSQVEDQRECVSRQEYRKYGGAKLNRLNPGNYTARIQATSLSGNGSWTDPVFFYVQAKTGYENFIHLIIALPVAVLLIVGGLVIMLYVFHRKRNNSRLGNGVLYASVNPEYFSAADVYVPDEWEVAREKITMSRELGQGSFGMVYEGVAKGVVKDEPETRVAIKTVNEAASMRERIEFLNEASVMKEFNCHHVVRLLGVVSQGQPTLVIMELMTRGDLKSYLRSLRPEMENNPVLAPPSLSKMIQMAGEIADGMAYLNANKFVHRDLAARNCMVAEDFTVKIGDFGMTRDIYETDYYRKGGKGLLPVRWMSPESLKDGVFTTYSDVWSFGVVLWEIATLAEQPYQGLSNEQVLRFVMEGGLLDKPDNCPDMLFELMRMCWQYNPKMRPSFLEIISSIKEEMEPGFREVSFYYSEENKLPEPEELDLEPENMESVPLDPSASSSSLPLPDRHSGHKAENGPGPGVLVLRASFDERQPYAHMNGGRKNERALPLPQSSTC
Sequence of Protein-tyrosine kinase 2-beta (Q14289 whole entry): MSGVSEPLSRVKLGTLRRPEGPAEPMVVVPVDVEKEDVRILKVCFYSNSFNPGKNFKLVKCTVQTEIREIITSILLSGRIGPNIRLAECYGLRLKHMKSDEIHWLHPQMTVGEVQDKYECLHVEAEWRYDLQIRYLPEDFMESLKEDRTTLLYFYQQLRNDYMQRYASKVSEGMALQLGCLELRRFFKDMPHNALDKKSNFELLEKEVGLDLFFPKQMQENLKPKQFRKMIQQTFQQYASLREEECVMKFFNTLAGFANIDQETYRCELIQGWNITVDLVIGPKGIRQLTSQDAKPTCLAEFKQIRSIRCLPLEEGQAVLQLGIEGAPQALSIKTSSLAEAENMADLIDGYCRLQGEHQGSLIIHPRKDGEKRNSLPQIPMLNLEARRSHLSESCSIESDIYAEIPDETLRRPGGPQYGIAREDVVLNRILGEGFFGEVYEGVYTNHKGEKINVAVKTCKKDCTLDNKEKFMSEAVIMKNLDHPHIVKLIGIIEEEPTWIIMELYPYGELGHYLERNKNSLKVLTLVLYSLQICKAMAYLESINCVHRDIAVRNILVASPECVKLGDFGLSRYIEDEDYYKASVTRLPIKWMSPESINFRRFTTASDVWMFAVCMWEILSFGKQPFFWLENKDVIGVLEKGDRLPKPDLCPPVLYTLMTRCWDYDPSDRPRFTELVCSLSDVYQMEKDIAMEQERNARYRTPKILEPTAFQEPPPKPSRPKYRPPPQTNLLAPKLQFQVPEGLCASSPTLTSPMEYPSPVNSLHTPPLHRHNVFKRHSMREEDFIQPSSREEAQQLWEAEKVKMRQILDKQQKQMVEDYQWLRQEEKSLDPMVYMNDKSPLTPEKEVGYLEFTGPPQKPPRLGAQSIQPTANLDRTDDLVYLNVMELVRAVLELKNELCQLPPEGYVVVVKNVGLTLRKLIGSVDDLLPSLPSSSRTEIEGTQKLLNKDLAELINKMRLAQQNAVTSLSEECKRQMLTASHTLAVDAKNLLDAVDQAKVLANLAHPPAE
Sequence of Cyclin-dependent kinase 1 (P06493 whole entry): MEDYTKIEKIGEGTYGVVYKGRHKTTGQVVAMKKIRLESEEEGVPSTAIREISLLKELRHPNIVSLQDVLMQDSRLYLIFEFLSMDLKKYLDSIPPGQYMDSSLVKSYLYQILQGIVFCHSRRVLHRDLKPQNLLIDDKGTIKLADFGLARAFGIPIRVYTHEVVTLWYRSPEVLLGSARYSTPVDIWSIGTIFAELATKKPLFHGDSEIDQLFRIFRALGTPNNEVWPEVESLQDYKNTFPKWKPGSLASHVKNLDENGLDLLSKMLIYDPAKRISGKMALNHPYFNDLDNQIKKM
Sequence of Serine/threonine-protein kinase B-raf (P15056 whole entry): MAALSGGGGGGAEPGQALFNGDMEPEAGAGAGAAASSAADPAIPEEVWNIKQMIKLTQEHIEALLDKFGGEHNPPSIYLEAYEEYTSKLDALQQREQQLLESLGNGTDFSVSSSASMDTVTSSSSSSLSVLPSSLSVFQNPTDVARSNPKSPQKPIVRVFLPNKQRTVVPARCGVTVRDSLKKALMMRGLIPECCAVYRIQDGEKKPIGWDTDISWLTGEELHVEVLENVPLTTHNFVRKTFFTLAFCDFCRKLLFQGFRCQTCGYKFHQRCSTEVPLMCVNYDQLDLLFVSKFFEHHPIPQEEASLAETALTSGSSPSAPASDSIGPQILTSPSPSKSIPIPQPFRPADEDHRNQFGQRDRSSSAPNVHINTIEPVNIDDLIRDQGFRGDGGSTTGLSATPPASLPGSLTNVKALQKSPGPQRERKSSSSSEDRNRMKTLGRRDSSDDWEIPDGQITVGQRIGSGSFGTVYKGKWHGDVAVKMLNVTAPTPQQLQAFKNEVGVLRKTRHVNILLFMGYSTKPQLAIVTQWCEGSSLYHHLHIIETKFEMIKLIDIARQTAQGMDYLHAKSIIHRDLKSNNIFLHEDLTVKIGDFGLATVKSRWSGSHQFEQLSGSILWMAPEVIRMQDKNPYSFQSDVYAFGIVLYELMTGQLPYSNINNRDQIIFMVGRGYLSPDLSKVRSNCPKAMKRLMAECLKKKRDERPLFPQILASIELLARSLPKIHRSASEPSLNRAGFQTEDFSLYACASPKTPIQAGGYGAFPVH

| Structure (SMILES) | pIC50 [1] | inhibition of growth at 10 µM (SK-MEL-1) [%] | IC50 [2] [µM] | inhibition of growth at 10 µM (KG-1) [%] | pIC50 [3] | inhibition of growth at 10 µM (A-375) [%] | inhibition of growth at 10 µM [4] [%] | Ratio IC50 [5] | inhibition of growth at 10 µM (MOLT-4) [%] | inhibition of growth at 10 µM (G-361) [%] | pIC50 [6] | inhibition of growth at 10 µM (T84) [%] | pIC50 [7] | inhibition of growth at 10 µM (HT-29) [%] | pIC50 [8] | inhibition of growth at 10 µM [9] [%] | pIC50 [10] | pIC50 [11] | pIC50 [12] | pIC50 [14] | other results |
| --- | --- | --- | --- | --- | --- | --- | --- | --- | --- | --- | --- | --- | --- | --- | --- | --- | --- | --- | --- | --- | --- |
| S=C(Nc1ccc(Cl)cc1)N1CCN(c2nnc(Cc3ccccc3)c3ccccc23)CC1 | 5.28 | 5.4 | 5.278 | 8.92 | 6.47 | 8.39 | 64.1 | 3.29 | 19.6 | 1.08 | 6.96 | 12.2 | 4.92 | 10.8 | 5.44 | 49.3 | 5.30 | 5.20 | 6.45 | 5.17 | Ratio IC50 [13]: 3.13; inhibition of growth at 10 µM (MCF7): 7.64%; pIC50 [15]: 5.18; inhibition of growth at 10 µM (BT-549): 18.6% |
| COc1ccc(Cc2nnc(N3CCN(C(=O)Nc4ccccc4)CC3)c3ccccc23)cc1 | 5.24 | 27.1 | 2.628 | 49.7 | 6.29 | 36.1 | 73.6 | 7.22 | 27.8 | 29.8 | 7.08 | 53.6 | 4.95 | 51.3 | 5.63 | 46.3 | 5.32 | 5.27 | 6.22 | 5.53 | Ratio IC50 [13]: 6.19; inhibition of growth at 10 µM (MCF7): 33.4%; pIC50 [15]: 5.69; inhibition of growth at 10 µM (BT-549): 56% |
| COc1ccc(NC(=O)N2CCN(c3nnc(Cc4ccccc4)c4ccccc34)CC2)cc1 | 5.14 | 54.3 | 4.567 | 71.3 | 6.96 | 34.9 | 71.5 | 4.22 | 52.9 | 25.7 | 7.18 | 48 | 5.77 | 54.1 | 5.63 | 85.2 | 5.61 | 5.37 | 6.55 | 5.34 | Ratio IC50 [13]: 1.63; inhibition of growth at 10 µM (MCF7): 34%; pIC50 [15]: 5.07; inhibition of growth at 10 µM (BT-549): 43.9% |
| COc1ccc(C(=O)N2CCN(c3nnc(Cc4ccccc4)c4ccccc34)CC2)cc1 | 5.20 | 11.8 | 8.605 | 0.91 | 6.52 | 5.3 | 66.7 | 7.29 | 1.02 | 3.45 | 7.08 | 2 | 4.84 | 1.58 | 5.82 | 42 | 5.33 | 5.39 | 6.22 | 5.31 | Ratio IC50 [13]: 3.62; inhibition of growth at 10 µM (MCF7): 4.09%; pIC50 [15]: 5.26; inhibition of growth at 10 µM (BT-549): 5.26% |
| O=C(Nc1ccccc1)N1CCN(c2nnc(Cc3ccccc3)c3ccccc23)CC1 | 5.60 | 49.7 | 2.579 | 29.7 | 6.54 | 62 | 87.4 | 2.95 | 41 | 23.8 | 7.27 | 63.1 | 5.53 | 36.2 | 5.12 | 77.9 | 5.03 | 5.89 | 6.80 | 5.78 | Ratio IC50 [13]: 5.31; inhibition of growth at 10 µM (MCF7): 18.4%; pIC50 [15]: 5.44; inhibition of growth at 10 µM (BT-549): 76.5% |
| CCc1cnn2c(NCc3ccc[n+]([O-])c3)cc(N3CCCC[C@H]3CCO)nc12 [DINACICLIB] | – | – | – | – | – | – | – | – | – | – | – | – | 7.62 | – | – | – | – | – | – | 7.82 | – |
| COc1ccc(Cc2nnc(N3CCN(C(=O)Nc4ccc(OC)cc4)CC3)c3ccccc23)cc1 | 5.32 | 39 | 3.512 | 0.31 | 6.46 | 25.8 | 66.1 | 2.7 | 25.4 | 49 | 7.28 | 57.5 | 5.39 | 32.1 | 5.32 | 73.1 | 5.43 | 6.06 | 6.85 | 5.29 | Ratio IC50 [13]: 6.63; inhibition of growth at 10 µM (MCF7): 24.2%; pIC50 [15]: 5.80; inhibition of growth at 10 µM (BT-549): 50.3% |
| COc1ccc(Cc2nnc(N3CCN(C(=S)Nc4ccccc4)CC3)c3ccccc23)cc1 | 5.84 | 11.4 | 7.953 | 13.9 | 6.28 | 17 | 42.3 | 11.7 | 28.7 | 4.21 | 7.07 | 7.38 | 5.69 | 16.9 | 5.93 | 76.2 | 5.32 | 5.61 | 6.00 | 4.87 | Ratio IC50 [13]: 6.16; inhibition of growth at 10 µM (MCF7): 14%; pIC50 [15]: 5.45; inhibition of growth at 10 µM (BT-549): 13.2% |
| O=C(c1ccc(Cl)cc1)N1CCN(c2nnc(Cc3ccccc3)c3ccccc23)CC1 | 5.46 | 10.4 | 2.628 | 8.36 | 6.86 | 15.3 | 57.4 | 7.32 | 12.1 | 24.7 | 6.94 | 16.7 | 4.89 | 4.9 | 5.46 | 45.1 | 5.83 | 5.06 | 6.08 | 5.07 | Ratio IC50 [13]: 1.21; inhibition of growth at 10 µM (MCF7): 18.6%; pIC50 [15]: 5.47; inhibition of growth at 10 µM (BT-549): 0.65% |
